Measurements published in patent publication US12527782B2, “Use of hexokinase 2/mitochondria-detaching compounds for treating hexokinase-2 (HK2)-expressing cancers” (Vidac Pharma Ltd., priority 2016, dated 2026).
“Also recorded” adds a separate entry of the source.

Columns and labels:
[1] = tested on: panel of 57 patient-derived tumors and cancer cell lines; test: CFA panel of 57 patient-derived tumors and cancer cell lines; format: cell-based, human
Method: (§1) CFA was performed by Charles River Laboratories (Freiburg, Germany) in 96-well plate format according to a modified two-layer soft agar assay. The origin of the tumor xenografts has been described (Fiebig et al. 1989, incorporated herein by reference). The list of tumors used in this study is detailed in Table 1.

Colon CXF 280 = test: CFA, CXF 280; format: cell-based, human; conditions: PDX/CFA
Method: as §1

CTCL cell line Hut-78 = test: PrestoBlue cell viability, Hut-78; format: cell-based, human; conditions: 72 hours
Method: Cutaneous T-cell lymphoma (CTCL) cell lines MJ and Hut78 were purchased from ATCC (CRL-8294, and TIB-161, respectively). Cells were grown in Iscove's Modified Dulbecco's Media supplemented with 2 mM L-glutamine, 10% fetal bovine serum, 100 U/mL of penicillin and 0.1 mg/mL of streptomycin.
Cells (1-2×10^4) were seeded in 96-well plates and treated with Formula C. Cell viability was determined 72 hours later using PrestoBlue reagent according to manufacturer's instruction (Life Technologies). The percentage of viability was expressed according to the fluorescence emitted by Formula C-treated cells compared to DMSO-treated control cells. The florescence emission values at 590 nm were measured with the plate-reader Spark 10M—multimode microplate reader (TECAN).

HK1 = biological target: T1, HK1 (Homo sapiens, UniProt P19367); test: HK catalytic activity coupled enzymatic assay, HK1; format: biochemical; design: dose or concentration left out as unconfirmed; conditions: as a function of ATP or glucose; absence or presence of Formula C
T1 construct: host or cells: E. coli
Method: A431 (human skin SCC), HT-297.T (human AK), and HaCaT transformed normal keratinocyte cell lines were from ATCC (Manassas, VA) and were maintained in DMEM supplemented with 10% FCS, 4 mM L-Gln, 1 mM sodium pyruvate, 100 U/mL penicillin, 1 μg/mL streptomycin. Human HK1 and HK2 plasmids were purchased from Addgene (Cambridge, MA) and were purified from E. Coli. VDAC1 was purified from sheep liver mitochondria as described (Arbel et al. 2012, incorporated herein by reference). Human skin tissue microarray (SK208 and SK 805) were purchased from US Biomax Inc. (Rockville, MD).
Hexokinase catalytic activity was determined by the coupled enzymatic assay in which hexokinase catalyzes the conversion of glucose to G6P, which is then oxidized by glucose-6-phosphate dehydrogenase (G6PDH) in the presence of NADP to form 6-Phospho-D-Gluconate and NADPH. NADPH production results in a colorimetric signal at 340 nm, which is proportional to the hexokinase catalytic activity. The readings were recorded in an ELISA plate reader Infinite 200 ELISA reader (Tecan, Männedorf, Switzerland).

[2] = tested on: Lymphoma (Non-Hodgkin) LYXFNH HUT-78; test: CFA, LYXFNH HUT-78; format: cell-based, human; conditions: Cell line/CFA
Method: as §1
The cell lines tested were from a large collection of patient-derived (PDX) and cell line-derived (CDX) human tumor xenografts growing subcutaneously in immunodeficient nude mice (Oncotest GmbH, a Charles River Division). The majority of the xenografts have been directly transplanted from patients and passaged in nude mice. The xenografts retain most of the characteristics of the parental patient tumors including histology and sensitivity to anti-cancer drugs, and efficacy tests in tumor-bearing nude mice largely replicate the response of the donor patient to standard anti-cancer drugs. The cell lines were from publicly available cell lines, including cell lines derived from solid tumors and hematological malignancies. […]
The clonogenic assay was carried out in a 96 well plate format using ultra low attachment plates. […] Cultures were incubated at 37° C. and 7.5% CO2 in a humidified atmosphere for 8 to 14 days and monitored closely for colony growth using an inverted microscope. […]

[3] = tested on: Cutanous T cell lymphoma Hut-78; test: XTT cell viability assay, Hut-78; format: cell-based, human; conditions: Cell line/XTT
Method: For XTT assays, cells were plated in 96-well plates (5,000 cells per well) for 24 hours. Cells were then incubated with different concentrations of Formula C in triplicates for 72 hr in DMEM supplemented with 0.5% FCS and 5 mM Glucose. Cell viability was evaluated using 2,3-bis-(2-methoxy-4-nitro-5-sulfophenyl)-2H-tetrazolium-5-carboxanilide (XTT)-based colorimetric assay kit (Biological Industries Ltd., Kibbutz Beit-Haemek, Israel). The optical density was measured by an Infinite 200 ELISA reader at 450 nm and reference was measured at 630 nm (Tecan, Männedorf, Switzerland).

A431 cells = test: Cellular ATP determination (CellTiter-Glo) in A431 cells; format: cell-based, human; conditions: 2-hour incubation
Method: Cellular ATP levels were determined using CellTiter-Glo® Luminescent Cell Viability Assay kit (Promega, Madison, WI) following 2 hours of treatment at 37° C.

T1 sequence (P19367 whole entry): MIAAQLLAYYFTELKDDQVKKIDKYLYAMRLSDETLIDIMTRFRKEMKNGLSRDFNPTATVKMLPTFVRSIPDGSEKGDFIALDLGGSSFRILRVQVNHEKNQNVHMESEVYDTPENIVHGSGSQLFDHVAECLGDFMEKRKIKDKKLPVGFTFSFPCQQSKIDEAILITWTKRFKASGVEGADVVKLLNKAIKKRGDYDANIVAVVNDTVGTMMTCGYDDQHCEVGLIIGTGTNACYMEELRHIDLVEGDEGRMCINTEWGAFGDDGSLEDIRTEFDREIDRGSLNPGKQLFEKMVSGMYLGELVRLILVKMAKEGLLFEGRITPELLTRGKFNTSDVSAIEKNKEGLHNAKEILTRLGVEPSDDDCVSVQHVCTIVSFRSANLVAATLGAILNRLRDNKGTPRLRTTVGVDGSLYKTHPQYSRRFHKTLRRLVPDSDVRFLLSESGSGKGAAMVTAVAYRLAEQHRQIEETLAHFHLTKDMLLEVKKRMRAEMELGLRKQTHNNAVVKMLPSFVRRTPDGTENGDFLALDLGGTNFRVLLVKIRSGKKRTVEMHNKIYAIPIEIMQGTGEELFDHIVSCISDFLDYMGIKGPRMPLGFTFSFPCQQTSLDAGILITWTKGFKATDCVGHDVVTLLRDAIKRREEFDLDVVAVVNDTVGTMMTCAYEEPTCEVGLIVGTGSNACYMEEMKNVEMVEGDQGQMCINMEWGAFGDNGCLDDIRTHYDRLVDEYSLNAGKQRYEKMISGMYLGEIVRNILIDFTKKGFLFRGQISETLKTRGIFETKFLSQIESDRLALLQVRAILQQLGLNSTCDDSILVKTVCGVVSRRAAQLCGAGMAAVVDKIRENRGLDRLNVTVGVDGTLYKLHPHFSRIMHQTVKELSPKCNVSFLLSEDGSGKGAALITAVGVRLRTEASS

## CC/C=C\CC1C(=O)CCC1CC(=O)Oc1cccc2cccnc12 (stereo not shown) [Formula C]
[1]
  share of tested cancer types with strong anti-proliferation effect (IC50<2 uM): 70%
Colon CXF 280
  IC50: 5440 nM
CTCL cell line Hut-78
  IC50: 1060 nM
HK1
  HK1 catalytic activity: does not affect; also recorded: did not affect the catalytic activity
[2]
  IC50: 965 nM
[3]
  IC50: 1060 nM
A431 cells
  reduction of cellular ATP levels: ≤ 50%
